Data: patent US20080234288A1, “Hcv Inhibiting Sulfonamides” (priority 2003, published 2008)
Where a name gives a salt, the structure may show the parent alone.

System: HCV replicon (NS3-NS5B regions of HCV type 1b) in Huh-7 luc/neo cells
Experiment: HCV replicon assay, stable replicon cell reporter assay (Huh-Luc, luciferase)
Format: cell-based
Details: incubation of three days, luciferase activity
Excerpt: The compounds of the present invention were examined for activity in the inhibition of HCV RNA replication in a cellular assay. […] The cellular assay was based on a bicistronic expression construct, as described by Lohmann et al. (1999) Science vol. 285 pp. 110-113 with modifications described by Krieger et al. (2001) Journal of Virology 75: 4614-4624, in a multi-target screening strategy. In essence, the method is as follows.
The assay utilized the stably transfected cell line Huh-7 luc/neo (hereafter referred to as Huh-Luc; kindly provided by Dr Ralf Bartenschlager, Reblikon GmBh, Germany). This cell line harbors an RNA encoding a bicistronic expression construct comprising the wild type NS3-NS5B regions of HCV type 1b translated from an Internal Ribosome Entry Site (IRES) from encephalomyocarditis virus (EMCV), preceded by a reporter portion (FfL-luciferase), and a selectable marker portion (neo^R, neomycine phosphotransferase). The construct was bordered by 5′ and 3′ NTRs (non-translated regions) from HCV type 1b. Continued culture of the replicon cells in the presence of G418 (neo^R) is dependent on the replication of the HCV RNA. The stably transfected replicon cells that express HCV RNA, which replicates autonomously and to high levels, encoding inter alia luciferase, were used for screening the antiviral compounds.
The replicon cells were plated in 384 well plates in the presence of the test and control compounds which were added in various concentrations. Following an incubation of three days, HCV replication was measured by assaying luciferase activity (using standard luciferase assay substrates and reagents and a Perkin Elmer ViewLux™ ultraHTS microplate imager). Replicon cells in the control cultures have high luciferase expression in the absence of any inhibitor. The inhibitory activity of the compound on luciferase activity was monitored on the Huh-Luc cells, enabling a dose-response curve for each test compound. EC50 values were then calculated, which value represents the amount of the compound required to decrease by 50% the level of detected luciferase activity, or more specifically, the ability of the genetically linked HCV replicon RNA to replicate (Table 1).

Structure (SMILES)	EC50 (Hepatitis C virus, Huh-7, 72 h) [µM]	EC50 [µM]
CC(C)CN(CC(O)C(Cc1ccccc1)NC(=O)OCc1cncs1)S(=O)(=O)c1ccc2nc(NCCN3CCNCC3)sc2c1 (stereo not shown) [Compound 18, (1-Benzyl-2-hydroxy-3-{isobutyl-[2-(2-piperazin-1-yl-ethyl-amino)-benzothiazole-6-sulfonyl]-amino}-propyl)-carbamic acid thiazol-5-ylmethyl ester]	2 to 10	–
CC(C)CN(CC(O)C(Cc1ccccc1)NC(=O)OCc1cncs1)S(=O)(=O)c1ccc2nc[nH]c2c1 (stereo not shown) [Compound 20, {3-[(3H-Benzoimidazole-5-sulfonyl)-isobutyl-amino]-1-benzyl-2-hydroxy-propyl}-carbamic acid thiazol-5-ylmethyl ester]	10 to 32	–
Nc1nc2ccc(S(=O)(=O)N(Cc3ccccn3)CC(O)C(Cc3ccccc3)NC(=O)OCc3cncs3)cc2o1 (stereo not shown) [Compound 22, {3-[(2-Amino-benzooxazole-6-sulfonyl)-pyridin-2-ylmethyl-amino]-1-benzyl-2-hydroxy-propyl}-carbamic acid thiazol-5-ylmethyl ester trifluoroacetate salt]	> 32	–
CC(C)CN(CC(O)C(Cc1ccccc1)NC(=O)OCc1cncs1)S(=O)(=O)c1ccc2nc(N)oc2c1 (stereo not shown) [Compound 19, {3-[(2-Amino-benzooxazole-6-sulfonyl)-isobutyl-amino]-1-benzyl-2-hydroxy-propyl}-carbamic acid thiazol-5-ylmethyl ester]	–	2 to 10
CC(C)CN(CC(O)C(Cc1ccccc1)NC(=O)OCc1cncs1)S(=O)(=O)c1ccc2nc(N(C)C(=O)c3ccncc3)oc2c1 (stereo not shown) [Compound 9, [1-Benzyl-2-hydroxy-3-(isobutyl-{2-[methyl-(pyridine-4-carbonyl)-amino]-benzooxazole-6-sulfonyl}-amino)-propyl]-carbamic acid thiazol-5-ylmethyl ester]	10 to 32	–
CC(C)CN(CC(O)C(Cc1ccccc1)NC(=O)OCc1cncs1)S(=O)(=O)c1ccc2ncn(Cc3ccccc3)c2c1 (stereo not shown) [Compound 12, [1-Benzyl-3-[(3-benzyl-3H-benzoimidazole-5-sulfonyl)-isobutyl-amino]-2-hydroxy-propyl}-carbamic acid thiazol-5-ylmethyl ester]	2 to 10	–
CC(C)CN(CC(O)C(Cc1ccccc1)NC(=O)OCc1cncs1)S(=O)(=O)c1ccc(-c2csc(Nc3ccncc3)n2)cc1 (stereo not shown) [Compound 43, [1-Benzyl-2-hydroxy-3-(isobutyl-{4-[2-(pyridin-4-ylamino)-thiazol-4-yl]-benzenesulfonyl}-amino)-propyl]-carbamic acid thiazol-5-ylmethyl ester]	< 2	–
CC(C)CN(CC(O)C(Cc1ccccc1)NC(=O)OCc1cncs1)S(=O)(=O)c1ccc2nc(N)sc2c1 (stereo not shown) [Compound 13, {3-[(2-Amino-benzothiazole-6-sulfonyl)-isobutyl-amino]-1-benzyl-2-hydroxy-propyl}-carbamic acid thiazol-5-ylmethyl ester]	2 to 10	–
CC(C)CN(CC(O)C(Cc1ccccc1)NC(=O)OCc1cncs1)S(=O)(=O)c1ccc2nc(NC(=O)CN(C)CCN3CCCC3)oc2c1 (stereo not shown) [Compound 32, {1-Benzyl-2-hydroxy-3-[isobutyl-(2-{2-[methyl-(2-pyrrolidin-1-yl-ethyl)-amino]-acetylamino}-benzooxazole-6-sulfonyl)-amino]-propyl}-carbamic acid thiazol-5-ylmethyl ester]	10 to 32	–
CC(=O)Nc1nc2ccc(S(=O)(=O)N(CC(C)C)CC(O)C(Cc3ccccc3)NC(=O)OCc3cncs3)cc2o1 (stereo not shown) [Compound 1, {3-[(2-Acetylamino-benzooxazole-6-sulfonyl)-isobutyl-amino]-1-benzyl-2-hydroxy-propyl}-carbamic acid thiazol-5-ylmethyl ester]	2 to 10	–
CC(C)CN(CC(O)C(Cc1ccccc1)NC(=O)OCc1cncs1)S(=O)(=O)c1ccc2nc(NC(=O)C3CCCN3C)oc2c1 (stereo not shown) [Compound 11, [1-Benzyl-2-hydroxy-3-(isobutyl-{2-[(1-methyl-pyrrolidine-2-carbonyl)-amino]-benzooxazole-6-sulfonyl}-amino)-propyl]-carbamic acid thiazol-5-ylmethyl ester]	2 to 10	–
CC(C)CN(CC(O)C(Cc1ccccc1)NC(=O)OCc1cncs1)S(=O)(=O)c1ccc2nc(NCCN3CCCC3)sc2c1 (stereo not shown) [Compound 15, (1-Benzyl-2-hydroxy-3-{isobutyl-[2-(2-pyrrolidin-1-yl-ethyl-amino)-benzothiazole-6-sulfonyl]-amino}-propyl)-carbamic acid thiazol-5-ylmethyl ester]	2 to 10	–
CC(C)CN(CC(O)C(Cc1ccccc1)NC(=O)OCc1cncs1)S(=O)(=O)c1ccc2nc(NC(=O)CN(C)C)oc2c1 (stereo not shown) [Compound 29, (1-Benzyl-3-{[2-(2-dimethylamino-acetylamino)-benzo-oxazole-6-sulfonyl]-isobutyl-amino}-2-hydroxy-propyl)-carbamic acid thiazol-5-ylmethyl ester]	2 to 10	–
CC(C)CN(CC(O)C(Cc1ccccc1)NC(=O)OCc1cnc(Cl)s1)S(=O)(=O)c1ccc2nc(N)oc2c1 (stereo not shown) [Compound 28, {3-[(2-Amino-benzooxazole-6-sulfonyl)-isobutyl-amino]-1-benzyl-2-hydroxy-propyl}-carbamic acid 2-chloro-thiazol-5-ylmethyl ester]	2 to 10	–
CC(C)CN(CC(O)C(Cc1ccccc1)NC(=O)OCc1cncs1)S(=O)(=O)c1ccc2nc(NC(=O)c3ccncc3)oc2c1 (stereo not shown) [Compound 35, [1-Benzyl-2-hydroxy-3-(isobutyl-{2-[(pyridine-4-carbonyl)-amino]-benzooxazole-6-sulfonyl}-amino)-propyl]-carbamic acid thiazol-5-ylmethyl ester]	< 2	–
CC(C)CN(CC(O)C(Cc1ccccc1)NC(=O)OCc1cncs1)S(=O)(=O)c1ccc2nc(N3CCNCC3)oc2c1 (stereo not shown) [Compound 30, {1-Benzyl-2-hydroxy-3-[isobutyl-(2-piperazin-1-yl-benzo-oxazole-6-sulfonyl)-amino]-propyl}-carbamic acid thiazol-5-ylmethyl ester]	2 to 10	–
CC(C)CN(CC(O)C(Cc1ccccc1)NC(=O)OCc1cncs1)S(=O)(=O)c1ccc2nc(NC(=O)c3ccoc3)oc2c1 (stereo not shown) [Compound 25, [1-Benzyl-3-({2-[(furan-3-carbonyl)-amino]-benzooxazole-6-sulfonyl}-isobutyl-amino)-2-hydroxy-propyl]-carbamic acid thiazol-5-ylmethyl ester]	< 2	–
CC(C)CN(CC(O)C(Cc1ccccc1)NC(=O)OCc1cncs1)S(=O)(=O)c1ccc2nc(NCCN(C)C)sc2c1 (stereo not shown) [Compound 14, (1-Benzyl-3-{[2-(2-dimethylamino-ethylamino)-benzo-thiazole-6-sulfonyl]-isobutyl-amino}-2-hydroxy-propyl)-carbamic acid thiazol-5-ylmethyl ester]	2 to 10	–
CC(C)CN(CC(O)C(Cc1ccccc1)NC(=O)OCc1cncs1)S(=O)(=O)c1ccc2nc(NC(=O)CN3CCN(C)CC3)oc2c1 (stereo not shown) [Compound 7, [1-Benzyl-2-hydroxy-3-(isobutyl-{2-[2-(4-methyl-piperazin-1-yl)-acetylamino]-benzooxazole-6-sulfonyl}-amino)-propyl]-carbamic acid thiazol-5-ylmethyl ester]	2 to 10	–
